Test results from article PMC12730333 (Biology, 2025).
Marks after values point to notes of the source that are not given here.

Assays:
[1] = system: promastigote forms of Leishmania amazonensis PH8 strain; experiment: Leishmanicidal activity assay on promastigotes (Alamar Blue, 24 h); assay type: cell-based; conditions: Leishmania amazonensis, 10^6 parasites/mL
Procedure: Promastigote forms of Leishmania amazonensis (IFLA/BR/1967/PH8) were obtained from the Instituto Oswaldo Cruz Leishmania collection (CLIOC/Fiocruz). These cultures were maintained in Schneider’s Insect Medium, supplemented with 20% FBS and 1 μL/mL of Pen/Str at 26 °C. In vitro passages were conducted weekly, with promastigotes harvested during the late logarithmic phase for experiments on the 5th day of growth (Figure S1A).
MT was employed as the reference drug.

[2] = Cytotoxicity assay (Alamar Blue, 24 h) on L929 fibroblasts; assay type: cell-based, murine; conditions: mouse, L929 fibroblasts
Procedure: (§1) HepG2 cells (human hepatocellular carcinoma), VERO cells (African green monkey kidney), and J774.G8 macrophages (murine reticulosarcoma) were maintained in DMEM medium, supplemented with 10% FBS, 1% Pen/Str at 37 °C and 5% CO2 [70, 71]. For the cultivation of L929 fibroblasts (murine fibrosarcoma), RPMI 1640 medium without phenol red, supplemented with 2 mM L-glutamine, 10% FBS, and 1% Pen/Str, was used and maintained under the same conditions of temperature and CO2 as above.
(§2) J774.G8, VERO (10^5 cells/well), HepG2, L929 (0.5 × 10^5 cells/well) cells, and MPMs (3 × 10^5 cells/well) were centrifuged, resuspended in medium, plated in 96-well microplates, and incubated for 24 h under cultivation conditions. Subsequently, they were exposed to different concentrations of the compounds, serially diluted in medium to a final volume of 100 µL/well, and incubated for 24 h at 37 °C and 5% CO2. Cell viability was then assessed using the AB, and data were acquired by spectrophotometry. […] Untreated cells were used as negative controls, and cells exposed to the reference compound (MT) were used as positive controls. The Selectivity Index (SI) was calculated using the ratio SI = CC50 (mammalian cells)/IC50 (promastigote or amastigote forms of L. amazonensis).

[3] = Cytotoxicity assay (Alamar Blue, 24 h) on HepG2 cells; assay type: cell-based, human; conditions: human, HepG2 cells
Procedure: as §1, §2

HepG2 cells = experiment: as above; assay type: cell-based, human; conditions: 0.5 × 10^5 cells/well
Procedure: as §1, §2

[4] = Cytotoxicity assay (Alamar Blue, 24 h) on VERO cells; assay type: cell-based, African green monkey; conditions: African green monkey, VERO cells
Procedure: as §1, §2

[5] = Cytotoxicity assay (Alamar Blue, 24 h) on J774.G8 macrophages; assay type: cell-based, murine; conditions: mouse, J774.G8 macrophages
Procedure: as §1, §2

[6] = Cytotoxicity assay (Alamar Blue, 24 h) on murine peritoneal macrophages; assay type: cell-based, Swiss Webster mice; conditions: male, Swiss Webster, mouse, murine peritoneal macrophages (MPMs, primary cells), 3 × 10^5 cells/well
Procedure: Murine peritoneal macrophages—MPMs (primary cells)—were isolated from male Swiss Webster mice stimulated with 1 mL of 3% Brewer’s thioglycollate medium, administered intraperitoneally. After 96 h, the animals were euthanized, and the MPMs were collected by peritoneal lavage with approximately 10 mL of RPMI 1640 medium. The cell suspension was centrifuged at 382× g for 10 min, and the pellet was resuspended in medium supplemented with 5% FBS, 1% Pen/Str, and 2 mM L-glutamine. All cell cultures were maintained at 37 °C and 5% CO2 [73]. For the experiments, all cell types were cultured until confluency.
as §2

[7] = system: promastigote forms of Leishmania amazonensis PH8 strain; experiment: ROS production by flow cytometry, H2DCFDA, promastigotes; assay type: cell-based; conditions: exposed to IC50 (AA 10 µM), 24 h
[8] = system: ex vivo amastigote forms of L. amazonensis LTB0016 strain; experiment: ROS production by flow cytometry, H2DCFDA, ex vivo amastigotes; assay type: cell-based, Leishmania amazonensis; conditions: exposed to IC50 (AA 10 µM), 24 h
[9] = system: promastigote forms of Leishmania amazonensis PH8 strain; experiment: Preliminary MB concentration assessment on promastigotes, Neubauer chamber counting, 72 h; assay type: cell-based; conditions: 3.13–200 μM tested
Procedure: Deyvison Rhuan Vasco-dos-Santos, Juliana Almeida-Silva, Ludmila Ferreira de Almeida Fiuza,
Natalia Vacani-Martins, Zênis Novais da Rocha, Maria de Nazaré Correia Soeiro, Andrea Henriques-Pons,
Eduardo Caio Torres-Santos and Marcos André Vannier-Santos
Evaluation of parasite proliferation after 24 h (B2), 48 h (B3), and 72 h (B4) are shown. Viability was
assessed by counting in a Neubauer chamber. Data represents mean ± SD. (*) p < 0.05 when
compared to negative control by ANOVA and Tukey’s post-test. […]

[10] = system: Leishmania amazonensis promastigote forms (PH8 strain)
Procedure: (§3) Promastigotes were kept at 26 °C, whereas amastigotes were kept at 32 °C. After 24 h, parasite viability was assessed using the AB colorimetric method, and the data were analyzed using a spectrophotometer as previously described [74]. […] Wells with medium and without parasites were used as blanks, and wells with medium and untreated parasites were used as negative controls. MT was employed as the reference drug.

promastigotes = conditions: MB without light treatment; cited from earlier work
[11] = system: fibroblasts and macrophages; set-up: method as in PMID 38917757; conditions: MB without light treatment; cited from earlier work
L. amazonensis = system: L. amazonensis; set-up: method as in Cabral et al. 136; conditions: MB treatment with PDT; ref Cabral et al. 136; cited from earlier work
[12] = system: ex vivo amastigote forms of Leishmania amazonensis LTB0016 strain; experiment: Cell death by flow cytometry, 7-AAD, ex vivo amastigotes; conditions: IC50, 24 h, mean ± SD
[13] = system: promastigote forms of Leishmania amazonensis PH8 strain; experiment: Cell death by flow cytometry, Annexin V/PI, promastigotes; conditions: 200 μM, 24 h, preliminary assay (Figure S5); control 99.81%
[14] = system: ex vivo amastigote forms of L. amazonensis LTB0016 strain; experiment: Leishmanicidal activity assay on ex vivo amastigotes (Alamar Blue, 24 h); conditions: Leishmania amazonensis, 24 h, read-out: IC50 Ama.
Source text: Ex vivo amastigote forms of L. amazonensis (MHOM/BR/77/LTB0016) were harvested and purified from lesions of male BALB/c mice. For this, a suspension containing 10^6 amastigotes was inoculated subcutaneously into the intraplantar region of the hind paw. After 30 days, the animals were euthanized, and their paws were excised and rinsed in 70% ethanol. The epidermis and necrotic tissues were mechanically dissociated. Subsequently, the paws were placed in Petri dishes containing RPMI 1640 medium supplemented with 5% FBS and 2% Pen/Str. […] The supernatant was transferred to another tube, homogenized with a syringe, and centrifuged at 764× g for another 15 min. The supernatant was discarded, and the pellet was resuspended in RPMI 1640 medium [69].
as §3

[15] = system: promastigote forms of Leishmania amazonensis PH8 strain; experiment: Mitochondrial membrane potential (ΔΨm) by flow cytometry, TMRE, promastigotes; conditions: exposed to IC50, 24 h
[16] = system: ex vivo amastigote forms of L. amazonensis LTB0016 strain; experiment: Mitochondrial membrane potential (ΔΨm) by flow cytometry, TMRE, ex vivo amastigotes
[17] = lower concentrations (37–100 μM)
[18] = exposed to IC50, 24 h, (MT − MC)/MC

CN(C)c1ccc2nc3ccc(=[N+](C)C)cc-3sc2c1 [MB, methylene blue, reference compound]
IC50 [1]: 61.4 ± 4.41 µM
CC50 at 24 h ([2]; 0.5 × 10^5 cells/well): 322 ± 3.74 µM
viability at 24 h ([2]; lower concentrations (37–100 μM), read-out: viability of L929 cells): > 50%
CC50 at 24 h ([3]; 0.5 × 10^5 cells/well): > 70 µM
viability at 24 h [3, 17]: > 50%
CC50 (HepG2 cells): 96 ± 3.28 µM
CC50 at 24 h ([4]; 10^5 cells/well): 141 ± 5.58 µM
viability at 24 h [4, 17]: > 50%
CC50 at 24 h ([5]; 10^5 cells/well, read-out: CC50 J744.G8): 206 ± 9.19 µM
viability at 24 h ([5]; lower concentrations (37–100 μM), read-out: viability of J774.G8 cells): > 50%
CC50 at 24 h [6]: 36 ± 3.69 µM
H2DCFDA MFI, Promastigotes High Population [7]: 1,658,186.80 *
H2DCFDA MFI, Promastigotes Low Population [7]: 26,534.03
H2DCFDA MFI, Ex Vivo Amastigotes High Population [8]: 140,636.20
H2DCFDA MFI, Ex Vivo Amastigotes Low Population [8]: 3151.50
VIROS, Ex Vivo Amastigotes High Population ([8]; MT/MC): 0.90 ± 0.29
VIROS, Ex Vivo Amastigotes Low Population ([8]; MT/MC): 1.28 ± 0.46
concentration from which significant reduction (p < 0.05) at 48 h ([9]; 48 h): ≥ 50 µM
concentration from which total viability loss at 72 h ([9]; 72 h): ≥ 12.50 µM
proliferation of promastigotes over 24 to 168 h ([10]; exposed to IC50): total inhibition from 96 h
time from which proliferation was significantly (p < 0.05) reduced compared to MT ([10]; exposed to IC50, 24–168 h): ≥ 24 h
IC50 (promastigotes): 100 µM
cytotoxicity in fibroblasts and macrophages [11]: no cytotoxicity observed
increase in ROS levels (L. amazonensis): 2 fold
reduction in ΔΨm (L. amazonensis): 60%
cell death (7-AAD) in ex vivo amastigotes [12]: highest mortality rate
viability of promastigotes (AV/PI) [13]: 12.89%
IC50 [14]: 15.7 ± 2.23 µM
TMRE MFI, Promastigotes High Population [15]: 56,878.47
TMRE MFI, Promastigotes Low Population [15]: 2737.60 *
VIΔΨm, Promastigotes High Population ([15]; (MT − MC)/MC): 0.02 ± 0.03
VIΔΨm, Promastigotes Low Population ([15]; (MT − MC)/MC, negative = depolarization): −0.41 ± 0.05
loss of potential (ΔΨm) in HP ex vivo amastigotes / mitochondrial depolarization ([16]; IC50, 24 h): up to 61%
decrease of ΔΨm considering both subpopulations ([16]; ex vivo amastigotes, LP plus HP, IC50, 24 h): 98%
TMRE MFI, ex vivo Amastigotes High Population ([16]; exposed to IC50, 24 h): 317,106.50
TMRE MFI, ex vivo Amastigotes Low Population ([16]; exposed to IC50, 24 h): 3237.43
VIΔΨm, ex vivo Amastigotes High Population [16, 18]: −0.61 ± 0.18
VIΔΨm, ex vivo Amastigotes Low Population [16, 18]: −0.37 ± 0.32
